# Laboratory results: US9187411B2, “Leukotriene B4 antagonist compound” (Eli Lilly and Company, priority 2012, dated 2015)
# Columns and labels:
# [1] = tested on: CaCl2-induced abdominal aortic aneurysm; assay: CaCl2-induced AAA animal efficacy model, mice; format: in vivo, 129SvEv mice; details: 28 days, aortic lumenal perimeter
# From the text: A targeted application of a calcium chloride solution to the mouse aorta induces vessel dilatation Chiou et al. J. Surg. Res. (2001), 99: 371-376; Lomgo et al. J. Clin. Invest. (2002), 110: 625-632. Two weeks after treatment, the vessel dilatation compared to the original vessel diameter becomes statistically significant, with up to 75% increase of aortic lumenal perimeter after 4 weeks. Calcium precipitates have been localized primarily within the elastic network of the media. Disruption of this structure by the calcium-elastic tissue complex weakens the vessel wall, contributing to aneurysm formation. This injury also serves as a proinflammatory stimulus, recruiting neutrophils, lymphocytes, monocytes, and mast cells.
# Mice: 129SvEv males, 7 weeks of age, are acquired from Taconic Farms, Germantown, N.Y., USA.
# Aneurysm Induction Model: All procedures are performed in accordance with Eli Lilly and Company Institutional Animal Care and Use guidelines. Upon their arrival, animals have a one week acclimation period during which they have ad libitum access to standard rodent chow (Purina #2014) and house water. Following the acclimation period, animals are anesthetized with isoflurane, and a laparotomy is performed for the CaCl2-stimulated induction of the abdominal aortic aneurysm (AAA). […] Interior cross sectional lumenal perimeter measurements (mm) are collected at that point to assess efficacy and statistically analyzed with JMP® 7 software (Cary, N.C.). Statistical Analysis: Measurements of lumenal perimeter are expressed as mean values±SE. […]
# The efficacy signal window in the CaCl2-induced abdominal aortic aneurysm model is determined by the lumenal perimeter of the aorta in mice treated with saline-soaked gauze followed by 4-weeks dosing with vehicle that determines 100% efficacy (“Sham Vehicle”) and the lumenal perimeter of the aorta in mice treated with CaCl2-soaked gauze followed by 4-weeks dosing with vehicle (“Vehicle”) that determines 0% efficacy.
# [2] = molecular target: T1, high-affinity (BLT1) LTB4 receptor (Homo sapiens, UniProt Q15722); assay: FLIPR calcium release assay (LTB4-induced calcium mobilization); format: cell-based; details: CHO-K1 cells expressing BLT1, 8 nM LTB4, n of 2
# T1 construct: expressed in transfected cells
# T1 sequence (Q15722 whole entry): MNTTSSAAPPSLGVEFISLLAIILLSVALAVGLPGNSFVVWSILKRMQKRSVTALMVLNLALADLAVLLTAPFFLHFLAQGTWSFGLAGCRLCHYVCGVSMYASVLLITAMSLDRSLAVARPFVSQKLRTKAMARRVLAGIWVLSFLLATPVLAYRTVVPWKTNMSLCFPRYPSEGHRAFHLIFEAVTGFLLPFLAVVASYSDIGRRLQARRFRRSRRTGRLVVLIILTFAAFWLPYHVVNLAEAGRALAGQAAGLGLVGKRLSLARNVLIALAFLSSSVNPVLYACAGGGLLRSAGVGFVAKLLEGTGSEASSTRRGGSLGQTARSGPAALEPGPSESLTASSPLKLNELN
# Description: hBLT1/CHO-K1 Stable Xcell Line Preparations: Human BLT1 receptor DNA (National Center for Biotechnology Information (NCBI), Reference Sequence NM_181657) is synthesized and cloned into expression vector pcDNA3.1/Hygro(+) (Invitrogen V87020). The cDNA expression vector construct is transfected into Chinese hamster ovary (CHO-K1) cells (American Type Culture Collection (ATCC) CCL-61) using Lipofectamine 2000 (Invitrogen) as transfection reagent. Cells are cultured in selective Dulbecco's Modified Eagle Medium (DMEM) containing 200 μg/mL Hygromycin, 24 hours post transfection. Single clones are isolated and screened for BLT1 expression and function using Western Blot analysis and Fluorometric Imaging Plate Reader (FLIPR®) calcium release assay.
# Chinese hamster ovary (CHO-K1) cells stably expressing the high-affinity (BLT1) LTB4 receptor are seeded at 10,000 cells/well in a 96 well plate (Corning) in growth medium containing DMEM/F-12 (3:1) w/o phenol red (Invitrogen), 5% fetal bovine serum (FBS) (Hyclone), 20 mM HEPES (Invitrogen), 200 μg/mL Hygromycin B (Invitrogen) and 40 μg/mL L-Proline (Sigma). The plate is incubated for 22-24 h at 37° C. 5% CO2 then growth medium is replaced with 50 μL/well of test medium containing Roswell Park Memorial Institute (RPMI) RPMI-1640 w/o phenol red, 20 mM HEPES (both from Invitrogen), and 0.2% w/v Bovine Serum Albumin (Sigma). […]
structure (smiles),measurement,setting,value
"CCCc1c(NC(=O)CC(C)(C)C(=O)[O-])cccc1OCCCOc1cc(O)c(-c2ccc(F)cc2)cc1CC.[Na+] [Example 2, Sodium 4-[[3-[3-[2-ethyl-4-(4-fluorophenyl)-5-hydroxy-phenoxy]propoxy]-2-propyl-phenyl]amino]-2,2-dimethyl-4-oxo-butanoate]",% Reduced (±S.E.) of AAA,[1]; 10 mg/kg b.i.d. oral gavage,41% ± 13
same,% Reduced (±S.E.) of AAA,[1]; 30 mg/kg b.i.d. oral gavage,48% ± 10
same,% Reduced (±S.E.) of AAA,[1]; 60 mg/kg b.i.d. oral gavage,58% ± 13
same,Kb,[2]; read-out: inhibition of LTB4-induced calcium mobilization Kb,0.98 nM
same,IC50,[2]; read-out: inhibition of LTB4-induced calcium mobilization relative IC50,6.48 nM
